Like-named read-outs stand apart in the source and are kept apart here. Numbered stars: 1 amine (or outer) side, 2 acyl side, 3 side chain; on linkers, the order of the positions; unused ones are H or OH. Bridge positions count the residues as written; N and C are the ends. Square brackets hold non-standard residues; d marks the D form. Peptide text beside a SMILES is read from it. * marks the point of attachment. ξ: configuration not given here. X9 = C=C(N([C@@H](Cc1ccc(Cl)cc1)C(=O)[*:2])[*:1])C(C)(C)NC(=O)[C@@H](NC(C)=O)[C@@H](C)O; DOTA = O=C(O)CN1CCN(CC(=O)O)CCN(CC(=O)*)CCN(CC(=O)O)CC1; Phe(4-Cl) = N[C@@H](Cc1ccc(Cl)cc1)C(=O)O; X4 = O=C(CN1CCC(N[*:1])CC1)[*:2]; Cit = NC(=O)NCCC[C@H](N)C(=O)O; Thr(ol) = C[C@@H](O)[C@H](N)CO; Tle = CC(C)(C)[C@H](N)C(=O)O; Nle = CCCC[C@H](N)C(=O)O; Aib = CC(C)(N)C(=O)O; ξP = O=C(O)C1CCCN1
Legend:
[1] = target: T1, PSMA-expressing C4-2 cells (Homo sapiens, UniProt Q04609); assay: FACS binding assay (competition with 50 nM PSM-0183); details: C4-2 cells, read-out: pIC50 [C4-2] CAT (converted)
T1 construct: PSMA-expressing C4-2 cells (ATCC, Cat. No. CRL-3314) were cultured in RPMI-1640; host or cells: C4-2 cells
T1 sequence (Q04609 whole entry): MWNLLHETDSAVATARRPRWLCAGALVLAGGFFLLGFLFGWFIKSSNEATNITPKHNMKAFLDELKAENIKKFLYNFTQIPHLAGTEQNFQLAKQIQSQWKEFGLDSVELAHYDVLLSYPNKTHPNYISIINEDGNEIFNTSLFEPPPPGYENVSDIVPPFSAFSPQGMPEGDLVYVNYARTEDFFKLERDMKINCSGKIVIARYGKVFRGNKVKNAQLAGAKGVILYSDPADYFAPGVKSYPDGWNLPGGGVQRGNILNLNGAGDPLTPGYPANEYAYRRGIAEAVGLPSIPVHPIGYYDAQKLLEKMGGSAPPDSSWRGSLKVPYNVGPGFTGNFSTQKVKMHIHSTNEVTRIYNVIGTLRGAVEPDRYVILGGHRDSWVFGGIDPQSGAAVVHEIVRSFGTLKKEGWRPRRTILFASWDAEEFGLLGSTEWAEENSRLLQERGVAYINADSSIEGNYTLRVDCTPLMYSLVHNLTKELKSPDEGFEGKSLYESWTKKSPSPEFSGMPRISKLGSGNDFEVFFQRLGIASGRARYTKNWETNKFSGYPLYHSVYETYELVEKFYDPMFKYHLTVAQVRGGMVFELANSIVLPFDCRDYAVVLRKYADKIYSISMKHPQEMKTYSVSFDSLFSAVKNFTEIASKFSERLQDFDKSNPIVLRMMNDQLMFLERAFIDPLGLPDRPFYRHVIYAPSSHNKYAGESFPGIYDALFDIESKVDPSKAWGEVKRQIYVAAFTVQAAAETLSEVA
Procedure: In order to determine binding of compounds according to the present invention to PSMA-expressing cells, a FACS binding assay was established.
PSMA-expressing C4-2 cells (ATCC, Cat. No. CRL-3314) were cultured in RPMI-1640 (Pan Biotech, Cat. No. P04-18050) including 10% fetal calf serum (Biochrom) and 100 U/ml penicillin and 100 μg/mL streptomycin (Sigma, Cat. No. P0781). Cells were detached with Accutase (Biolegend, Cat. No. BLD-423201) and washed in FACS buffer (PBS (Sigma, Cat. No. D8537) including 1% fetal calf serum). Cells were diluted in FACS buffer to a final concentration of 500,000 cells per mL. 200 μL of the cell suspension were transferred to a u-shaped non-binding 96-well plate (Greiner Bio-One, Cat. No. 650901) and cells were washed in ice-cold FACS buffer.
For IC50 determination, C4-2 cells were incubated with 50 nM PSM-0183 (Ac-Thr-Aib-Phe[Cys-Lys-Arg-Aib-Asn-Cys]-Tle-Thr-Asp-Ttds-Ttds-AF488N3K-NH2) in the presence of increasing concentrations of test compounds at 4° C. for 1 hour. After two wash steps with ice-cold FACS buffer, cells were analyzed in an Attune NxT flow cytometer. Median fluorescence intensities (MFI) of the FITC/AF488-channel were calculated by Attune NxT software. MFI values were plotted against peptide concentration and four parameter logistic (4PL) curve fitting and IC50/pIC50 calculations were performed using ActivityBase software (IDBS).

[2] = target: T2, Fc-fusion protein of human PSMA (hPSMA-Fc) (Homo sapiens, UniProt Q04609); assay: Surface plasmon resonance assay (Biacore T200, single cycle kinetic); format: binding; details: read-out: pKD CAT (converted)
T2 construct: purchased Acro Biosystems PSA-H5264
T2 sequence (Q04609 44-750 limits assumed): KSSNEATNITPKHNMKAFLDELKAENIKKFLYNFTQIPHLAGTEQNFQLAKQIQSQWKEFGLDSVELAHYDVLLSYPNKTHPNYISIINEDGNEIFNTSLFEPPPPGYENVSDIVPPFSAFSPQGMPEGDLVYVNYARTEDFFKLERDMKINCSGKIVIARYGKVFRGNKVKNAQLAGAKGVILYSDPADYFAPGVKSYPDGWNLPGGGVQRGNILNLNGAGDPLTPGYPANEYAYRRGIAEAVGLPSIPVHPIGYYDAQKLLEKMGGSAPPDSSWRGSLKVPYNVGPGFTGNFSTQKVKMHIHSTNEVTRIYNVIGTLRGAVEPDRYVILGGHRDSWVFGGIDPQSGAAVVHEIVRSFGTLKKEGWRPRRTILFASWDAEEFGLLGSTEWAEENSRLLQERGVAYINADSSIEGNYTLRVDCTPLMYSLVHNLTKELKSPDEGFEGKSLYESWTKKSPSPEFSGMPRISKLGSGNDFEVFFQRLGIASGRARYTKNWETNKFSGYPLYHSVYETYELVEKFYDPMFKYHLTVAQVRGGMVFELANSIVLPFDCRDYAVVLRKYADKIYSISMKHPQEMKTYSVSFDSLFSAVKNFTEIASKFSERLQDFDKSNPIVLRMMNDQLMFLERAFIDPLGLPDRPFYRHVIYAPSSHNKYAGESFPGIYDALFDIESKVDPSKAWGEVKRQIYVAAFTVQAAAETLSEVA
Procedure: Surface plasmon resonance (SPR) studies were performed using a Biacore™ T200 SPR system. Briefly, polarized light is directed towards a gold-labeled sensor surface, and minimum intensity reflected light is detected. The angle of reflected light changes as molecules bind and dissociate.
Fc-fusion protein of human PSMA (hPSMA-Fc, Acro Biosystems, Cat #PSA-H5264) was captured on a Fc-capture chip (Biacore™ CM5 sensor chip coated with ˜300 RU of an Fc-binding peptide). hPSMA-Fc was diluted in Running Buffer (HBST, 0.1% DMSO) to a final concentration of 100 nM and then flushed over the Fc-capture chip to immobilized ˜1000 RUs.
Stock solutions of test compounds were prepared by dissolving each compound in DMSO. DMSO stock solution were diluted 1:1000 in Running Buffer without DMSO. Further sequential dilutions were made with Running Buffer containing 0.1% DMSO. SPR binding analyses were performed in Single Cycle Kinetic (SCK) mode at 25° C. Flow cell coated with the Fc-binding peptide only served as reference flowcell. After each SCK run, hPSMA-Fc was removed with 10 mM glycine buffer, pH 1.5.
In between every three SCK measurements, a blank run with Running Buffer instead of test compound was included to correct for baseline drifts (double blanking method).
Table 5 describes the protocol steps for Fc-fusion target capturing and assessment of the binding kinetics.
For each test compound, SPR raw data in the form of resonance units (RU) were plotted as sensorgrams using the Biacore™ T200 control software. The signal from the blank sensorgram was subtracted from that of the test compound sensorgram (blank corrected). The blank corrected sensorgram was corrected for baseline drift by subtracting the sensorgram of a SCK run without the test compound (running buffer only). The dissociation constant (KD) was calculated from Blank-normalized SPR data using the 1:1 Langmuir binding model from the Biacore™ Insight Evaluation software. The pKD value (negative decadic logarithm of dissociation constant) was calculated using Microsoft Excel.

[3] = FACS binding, competition with 50 nM PSM-0183, category
[4] = SPR, hPSMA-Fc, single cycle kinetic, 25° C., category
[5] = pKD category for PSMA SPR activity assay, hPSMA-Fc, 25° C.

Compound	IC50 [1, 3]	Kd [2, 4]	IC50 ([1]; pIC50 category of FACS binding)	Kd [2, 5]	other results
CC(=O)N[C@H](C(=O)NC(C)(C)C(=O)N[C@@H](Cc1ccccc1)C(=O)N[C@H]1CSSC[C@@H](C(=O)N[C@H](C(=O)N[C@H](C(=O)NC2CCN(CC(=O)N[C@H](CCCCNC(=O)CN3CCN(CC(=O)O)CCN(CC(=O)O)CCN(CC(=O)O)CC3)C(N)=O)CC2)[C@@H](C)O)C(C)(C)C)NC(=O)[C@H](CC(N)=O)NC(=O)C(C)(C)NC(=O)[C@H](CCCNC(=N)N)NC(=O)[C@H](CCCCN)NC1=O)[C@@H](C)O [PSM-0191, Ac-Thr-Aib-Phe-[Cys-Lys-Arg-Aib-Asn-Cys]-Tle-Thr-APAc-lys(DOTA)-NH2] (Ac-T[Aib]FCKR[Aib]NC[Tle]T[X4][dK](DOTA)-NH2; disulfide 4-9)	< 200 nM	< 12.6 nM	–	–	–
CC(=O)N[C@H](C(=O)NC(C)(C)C(=O)N[C@@H](Cc1ccc(Cl)cc1)C(=O)N[C@H]1CSSC[C@@H](C(=O)N[C@H](C(=O)N[C@H](CO)[C@@H](C)O)C(C)(C)C)NC(=O)[C@H](CC(N)=O)NC(=O)C(C)(C)NC(=O)[C@H](CCCNC(=N)N)NC(=O)[C@H](CCCCN)NC1=O)[C@@H](C)O [PSM-0554, Ac-Thr-Aib-Pcf-[Cys-Lys-Arg-Aib-Asn-Cys]-Tle-Throl-OH] (Ac-T[Aib][Phe(4-Cl)]CKR[Aib]NC[Tle][Thr(ol)]; disulfide 4-9)	–	–	< 200 nM	< 12.6 nM	–
CCCC[C@H](NC(=O)[C@@H]1CSSC[C@H](NC(=O)[C@H](Cc2ccccc2)NC(=O)[C@H](C)NC(=O)[C@@H](NC(C)=O)[C@@H](C)O)C(=O)N[C@@H](CCCCN)C(=O)N[C@@H](CCCNC(=N)N)C(=O)NC(C)(C)C(=O)N[C@@H](CC(N)=O)C(=O)N1)C(=O)N[C@H](C(=O)N[C@@H](CC(=O)O)C(N)=O)[C@@H](C)O [PSM-0578, Ac-Thr-Ala-Phe-[Cys-Lys-Arg-Aib-Asn-Cys]-Nle-Thr-Asp-NH2] (Ac-TAFCKR[Aib]NC[Nle]TD-NH2; disulfide 4-9)	–	–	–	–	IC50 ([1]; FACS binding, category): < 200 nM; Kd ([2]; PSMA SPR assay, category): 12.6 to 126 nM

More lines, main results first:

IC50 [1, 3]	Kd [2, 4]	IC50 ([1]; pIC50 category of FACS binding)	Kd [2, 5]	Compound	other results
< 200 nM	< 12.6 nM	–	–	C=C(N[C@@H](Cc1ccc(Cl)cc1)C(=O)N[C@H]1CSSC[C@@H](C(=O)N[C@H](C(=O)N[C@H](C(N)=O)[C@@H](C)O)C(C)(C)C)NC(=O)[C@H](CCCNC(=N)N)NC(=O)C(C)(C)NC(=O)[C@H](CCCNC(N)=O)NC(=O)[C@H](CCCCN)NC1=O)C(C)(C)NC(=O)[C@@H](NC(C)=O)[C@@H](C)O [PSM-0240, Ac-Thr-Aib-Pcf-[Cys-Lys-Cit-Aib-Arg-Cys]-Tle-Thr-NH2] (H-[X9]CK[Cit][Aib]RC[Tle]T-NH2; disulfide 2-7)	–
–	–	< 200 nM	< 12.6 nM	CC(=O)N[C@H](C(=O)NC(C)(C)C(=O)N[C@@H](Cc1ccccc1)C(=O)N[C@H]1CSSC[C@@H](C(=O)N[C@H](C(=O)N2CCCC2C(N)=O)C(C)(C)C)NC(=O)[C@H](CC(N)=O)NC(=O)C(C)(C)NC(=O)[C@H](CCCNC(=N)N)NC(=O)[C@H](CCCCN)NC1=O)[C@@H](C)O (stereo partly drawn) [PSM-0388, Ac-Thr-Aib-Phe-[Cys-Lys-Arg-Aib-Asn-Cys]-Tle-Pro-NH2] (Ac-T[Aib]FCKR[Aib]NC[Tle][ξP]-NH2; disulfide 4-9)	–

— US20260083865A1, “PROSTATE SPECIFIC MEMBRANE ANTIGEN (PSMA) LIGANDS AND USE THEREOF” (priority 2022, published 2026)
